Results as given in US20120003661A1, “METHODS AND DEVICES FOR THE SELECTIVE DETECTION OF MICROORGANISMS” (C3 JIAN, INC., priority 2010, published 2012).
“Also recorded” adds a separate entry of the source. Like-named read-outs stand apart in the source and are kept apart here.

System: bacteria, fungi, and/or yeasts
Type: binding
[1] = microorganism(s) the targeting peptide binds, as listed in Table 2
[2] = microorganism(s) listed as target(s) of the targeting peptide, wrapped target lists given cell by cell
[3] = microorganism(s) that the targeting peptide binds, as listed in Table 2

| Substance | Target(s) [1] | Target(s) [2] | also measured |
| --- | --- | --- | --- |
| 1T-29 (GSVIKKRRKRMSKKKHRKMLRRTRVQRRKLGK) | S. mutans, S. aureus, S. epidermidis,; also recorded: C. jeikeium, C. xerosis,; also recorded: C. striatum, P. aeruginosa | – | – |
| 1T-297 (RSLRLNNALTKLPKLWYNRIKEAFYAYNDYDK) | – | A. naeslundii, F. nucleatum, T. denticola,; also recorded: S. mitis, S. mutans, S. oralis | – |
| 1T-303 (LDYENMDCKKRIRI) | – | A. naeslundii, F. nucleatum, P. gingivalis,; also recorded: S. gordonii, S. mitis,; also recorded: S. mutans, S. oralis, S. salivarious,; also recorded: S. sanguinis | – |
| 1T-243 (SENIARFAAAFENEQVVSYARWFRRSWRGSGSSSRF) | A. naeslundii, P. gingivalis, S. epidermidis,; also recorded: S. gordonii, S. mitis,; also recorded: S. mutans, S. oralis, S. salivarious,; also recorded: S. sanguinis | – | – |
| PF-046 (LDFYLTKHLTLML) | – | E. coli, E. faecalis, C. jeikeium | – |
| PF-128 (GIKVVAARFEEIQFSENFDSIILA) | – | M. luteus, P. aeruginosa, E. faecalis | – |
| 1T-94 (DQVAHSGDMLVQARRRDS) | S. mitis, S. mutans, S. oralis | – | – |
| 1T-289 (EPSADIYLSAKDTKT) | – | F. nucleatum, P. gingivalis, S. gordonii,; also recorded: S. mitis, S. mutans, S. oralis,; also recorded: S. sanguinis | – |
| 1T-168 (ELHRIMSTEKIGAVTKMNFDTAPIMSILPIDIYPKEVGIGS) | A. naeslundii, F. nucleatum, P. gingivalis,; also recorded: S. epidermidis, S. gordonii,; also recorded: S. mitis, S. mutans, S. oralis,; also recorded: S. salivarious, S. sanguinis | – | – |
| PF-171 (TQVTLCRTW) | – | S. epidermidis, E. coli, P. aeruginosa,; also recorded: S. pneumoniae | – |
| 1T-216 (FFLNVIAIRIPHF) | S. sanguinis | – | – |
| PF-791 (IFLTTQNTDYSEHNAA) | – | – | Target(s) [3]: S. mutans |
| PF-073 (CPSVTMDACALLQKFDFCNNISHFRHFFAIKQPIER) | – | S. epidermidis, M. luteus, P. aeruginosa,; also recorded: C. albicans, MRSA,; also recorded: S. pneumoniae, E. faecalis | – |
| PF-141 (VVRRFQGM) | – | C. albicans hyphae; also recorded: S. epidermidis, M. luteus, C. albicans,; also recorded: MRSA, C. jeikeium | – |
| PF-142 (GIDRGCQAAR) | – | S. mutans | – |
| PF-018 (YYKTYFKEV) | – | E. coli, C. jeikeium | – |
| PF-003 (MNNWIKVAQISVTVINEVIDIMKEKQNGGK) | – | S. epidermidis, M. luteus, P. mirabilis,; also recorded: C. albicans, MRSA, C. jeikeium | – |
| PF-070 (SMVKSEIVDLLNGEDNDD) | – | S. epidermidis, C. jejuni | – |
| PF-C281 (KKEKLLTAIRLQHRAEIRGYFTIFFLFFRI) | – | – | Target(s) [3]: A. naeslundii, F. nucleatum, P. gingivalis,; also recorded: S. mutans, T. denticola |
| 1T-103 (AQFYEAIITGYALGAGQRIGQL) | A. naeslundii, F. nucleatum, P. gingivalis,; also recorded: S. epidermidis, S. gordonii,; also recorded: S. mitis, S. mutans, S. oralis,; also recorded: S. sanguinis | – | – |
| Rv2369c (VRQVPVDRPESRHQKPGDVPRDPRC) | – | C. albicans | – |
| 1T-199 (RAGRIKKLSQKEAEPFEN) | S. sanguinis | – | – |
| 1T-60 (YLTSLGLDAAEQAQGLLTILKG) | S. aureus, S. epidermidis, C. jeikeium,; also recorded: C. striatum, P. aeruginosa | – | – |
| PF-794 (NLYFENQGN) | – | – | Target(s) [3]: S. mutans |
| 1T-180 (VVFGGGDRLV) | A. naeslundii, F. nucleatum, P. gingivalis,; also recorded: T. denticola, S. gordonii,; also recorded: S. mitis, S. mutans, S. oralis,; also recorded: S. salivarious, S. sanguinis | – | – |
| 1T-283 (LCTKLEDKQRGRIPAELFIISPIKILERNDAL) | – | A. naeslundii, F. nucleatum, P. gingivalis,; also recorded: T. denticola, S. epidermidis,; also recorded: S. gordonii, S. mitis,; also recorded: S. mutans, S. oralis, S. salivarious,; also recorded: S. sanguinis | – |
